The test system of experiment [1] is HLA-DR1 (α1*01:01;β1*01:01). Briefly: ProImmune REVEAL MHC class II binding assay of long peptides. On the set-up: species or system human. To be noted: percentage of the signal of the positive control peptide; positive binding score >=15%. From the text: (§1) The highly frequent HLA class II alleles HLA-DR1 (α1*01:01;β1*01:01), HLA-DR15 (α1*01:01;β1*15:01), HLA-DR3 (α1*01:01;β1*03:01), HLA-DR4 (α1*01:01;β1*04:01), HLA-DR11 (α1*01:01;β1*11:01), HLA-DR13 (α1*01:01;β1*13:01), and HLA-DR7 (α1*01:01;β1*07:01) were selected. Each peptide was given a score relative to the positive control peptide, which is a known T-cell epitope. The score of the test peptide is reported quantitatively as a percentage of the signal generated by the positive control peptide, and the peptide is indicated as having a putative pass or fail result. Good binders are considered to be those peptides with scores >=15% of the positive control as defined by Proimmune.

In experiment [2] the test system is HLA-DR3 (α1*01:01;β1*03:0). The experiment is described as above. Further details: species or system human. To be noted: percentage of the signal of the positive control peptide; positive binding score >=15%.
Excerpt: as §1

Experiment [3] has as its system HLA class II alleles. In words: ProImmune REVEAL MHC class II binding assay, summary over the seven alleles. On the set-up: species or system human. To be noted: number of class II alleles for which positive binding (score >=15%) was detected.
Excerpt: as §1

For experiment [4], the target named is HLA-B*0801 (Homo sapiens, UniProt P01889, A93T/A95T/D138N/E176V/E187T/K202T/Q94N/R180D/S35A/V36M/Y33D/Y91F). Briefly: ProImmune REVEAL MHC class I binding assay of nonamers. The settings on record: score as % of positive control peptide. The method, boiled down:
(§2)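 Binding is scored by how well the peptide stabilizes a natively folded MHC-peptide complex. Percent of positive-control signal is reported together with a pass or fail call; scores of 45% of positive control count as good binding.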

The target in experiment [5] is T1, HLA-A*1101 (Homo sapiens, UniProt P04439, A114D/D185E/E176A/F33Y/L180Q/S129P/T187R).
T1 construct: purchased ProImmune
The experiment is described as above. The settings on record: score as % of positive control peptide. The method, boiled down: as §2

Experiment [6] has as its target HLA-A*0201 (Homo sapiens, UniProt P04439, D140Y/D185E/D98H/E176V/E277Q/G131W/G231S/I119V/I121R/I166T/I218V/L300P/L318F/N151K/N90K/P208A/P217A/Q86G/Q94H/R138H/R169H/T345S). Described as above. To be noted: score as % of positive control peptide. The method, boiled down: as §2
The subject of experiment [7] is HLA-DR11 (α1*01:01;β1*11:01). Briefly: ProImmune REVEAL MHC class II binding assay of long peptides. On the set-up: species or system human. To be noted: percentage of the signal of the positive control peptide; positive binding score >=15%. From the text: The highly frequent HLA class II alleles HLA-DR1 (α1*01:01;β1*01:01), HLA-DR15 (α1*01:01;β1*15:01), HLA-DR3 (α1*01:01;β1*03:01), HLA-DR4 (α1*01:01;β1*04:01), HLA-DR11 (α1*01:01;β1*11:01), HLA-DR13 (α1*01:01;β1*13:01), and HLA-DR7 (α1*01:01;β1*07:01) were selected. Each peptide was given a score relative to the positive control peptide, which is a known T-cell epitope.

The subject of experiment [8] is BALB/c mice. Briefly: Immunogenicity in mice, IFNγ ELISpot of splenocytes, FP02.1 vs NP02.1 (Example 6). The class given is in vivo. To be noted: mice immunised with FP02.1 or NP02.1, restimulation 5 μg/mL/peptide, FIG. 15. As for the experimental part:
The immunogenicity in mice of FP02.1 (containing nine fluorocarbon-conjugated peptides) was compared to NP02.1 (containing nine equivalent unconjugated peptides).
Alternatively, splenocytes were stimulated in vitro with 5 μg/mL/peptide of nine individual peptides for 18 hours in an ELISpot assay. The number of IFNγ+ spot forming cells (SFC) was counted. Plates then were washed with PBS, incubated with an IFNγ detection peroxidase-labelled antibody, followed by a substrate, according to the manufacturer's instructions.

With “NP753(K): unconjugated HBV long peptide, core KK + 738-770 (S to T at 743) + KKK (KKKEFGATVELLSFLPSDFFPSVRDLLDTASALYRKKK; HBV CONSENSUS SEQUENCE)”, in experiment [1], the “binding score, HLA-DR1 (α1*01:01;β1*01:01)” value was 0.11%. The “binding score, HLA-DR3 (α1*01:01;β1*03:0)” value (from here on “binding score, HLA-DR3”) in experiment [2] came to 0.00%. Moreover, in experiment [3], the “Number of allele (a)” value amounted to 0. In addition, the “Number of nonamers having a binding score >= 45%, HLA-B*0801” value in experiment [4] worked out at 1. The “Number of nonamers having a binding score >= 45%, HLA-A*1101” value in experiment [5] was determined as 1. In experiment [6], the “Number of nonamers having a binding score >= 45%, HLA-A*0201” value worked out at 3. In experiment [7], the “binding score, HLA-DR11 (α1*01:01;β1*11:01)” value amounted to 1.51%.

Take “NP151: unconjugated HBV long peptide, polymerase region 134-168 (PEHVVNHYFQTRHYLHTLWKAGILYKRETTRSASF; HBV CONSENSUS SEQUENCE)”: the “binding score, HLA-DR1 (α1*01:01;β1*01:01)” value in experiment [1] is 14.59%. Also, the “binding score, HLA-DR3” value in experiment [2] was determined as 0.00%. In experiment [8], the “IFNγ response of splenocytes to each individual peptide component” value is reported as “immune responses were dominated by four out of the 9 peptides contained in the vaccine”. Moreover, in experiment [4], the “Number of nonamers having a binding score >= 45%, HLA-B*0801” value amounted to 4. For the same substance, the “Number of nonamers having a binding score >= 45%, HLA-A*1101” value in experiment [5] is reported as 3. The “Number of nonamers having a binding score >= 45%, HLA-A*0201” value in experiment [6] was 3.

For “NP113: unconjugated HBV long peptide, polymerase region 96-130 of virtual HBV proteome (VGPLTVNEKRRLKLIMPARFYPNVTKYLPLDKGIK; HBV CONSENSUS SEQUENCE)”, the “binding score, HLA-DR1 (α1*01:01;β1*01:01)” value in experiment [1] is given as 54.44%. For the same substance, the “binding score, HLA-DR3” value in experiment [2] was 49.98%. Further, the entries for the “IFNγ response of splenocytes to each individual peptide component” value in experiment [8] and in experiment [8] (listed as P113) were “immune responses were dominated by four out of the 9 peptides contained in the vaccine” and “only observed with the formulation containing the fluorocarbon-conjugated peptides”, respectively. Also, the “Number of nonamers having a binding score >= 45%, HLA-B*0801” value in experiment [4] came to 3. Further, in experiment [5], the “Number of nonamers having a binding score >= 45%, HLA-A*1101” value is 5. Further, the “Number of nonamers having a binding score >= 45%, HLA-A*0201” value in experiment [6] was 2.

The values above are taken from patent US11918645B2, “Vaccines against hepatitis B virus” (priority 2012, dated 2024).
